Tested on: γ-secretase
Assay: Cellular γ-secretase assay (inhibition of Aβ42 secretion, AlphaLisa)
Format: cell-based
Details: human neuroglioma H4 cells overexpressing human APP695 Swedish double mutation, 24 h compound incubation
Description: Human neuroglioma H4 cells overexpressing human APP695 with the Swedish double mutation (K595N/M596L) were plated at 30,000 cells/well/100 μL in 96-well plates in IMDM containing 10% FCS, 0.2 mg/L Hygromycin B and incubated at 37° C., 5% CO2. 3-4 h post plating, compounds are a diluted in media and 50 μL is added as […] concentrate to achieve the final concentration. Compound incubation is performed for 24 h. Final doses typically range from 4 μM down to 0.0013 μM in half-log steps resulting in an eight-point dose response curve.
Appropriate controls using vehicle only and reference compound were applied to this assay. The final concentration of Me2SO was 0.4%.
After incubation at 37° C., 5% CO2, the supernatant was subjected to quantification of secreted Aβ42 by the means of an AlphaLisa assay kit (Human Amyloid beta 1-42 Kit: Cat # AL203C, Perkin Elmer). 20 μL of the cell culture supernatant was transferred to an assay plate. Then 10 μL, of a mixture of the AlphaLisa coupled capture antibody and the biotinylated detection antibody was added and incubated for 3 h at RT while softly shaking the assay plate. After a further addition of 20 μL of the Donor beads the assay plate was incubated for 30 min at RT and constant shaking without exposure to direct light. The assay plate was then read on a Paradigm AlphaLisa Reader using the build-in program with excitation at 680 nm and emission at 570 nm. The measured signals were then used to calculate IC50 values for inhibition of Aβ42 secretion by nonlinear regression fit analysis using XLfit 5.3 software (from IDBS company).

| Compound | IC50 [nM] |
| --- | --- |
| COc1cc(N2C[C@H]3CC[C@@H](C2)[C@@H]3Nc2nc3n(n2)CCCO[C@@H]3c2cccc(F)c2F)cnn1 (single isomer, unassigned) [Example 1] | 84.7 |
| COc1cc(N2C[C@H]3CC[C@@H](C2)[C@@H]3Nc2nc3n(n2)CCCOC3c2cccc(F)c2F)cnn1 (single isomer, unassigned) [Example 2] | 51.1 |
| Cc1cc(N2C[C@H]3CC[C@@H](C2)[C@@H]3Nc2nc3n(n2)CCCO[C@@H]3c2cc(F)cc(F)c2)ncn1 (single isomer, unassigned) [Example 7] | 43.3 |
| Cc1cc(N2C[C@H]3CC[C@@H](C2)[C@@H]3Nc2nc3n(n2)CCCO[C@@H]3c2ccc(F)cc2F)ncn1 (single isomer, unassigned) [Example 8] | 74.9 |
| Cc1cc(N2C[C@H]3CC[C@@H](C2)[C@@H]3Nc2nc3n(n2)CCCOC3c2ccc(F)cc2F)ncn1 (single isomer, unassigned) [Example 10] | 71.8 |
| COc1cc(N2C[C@H]3CC[C@@H](C2)[C@@H]3Nc2nc3n(n2)CCCOC3c2ccc(F)c(F)c2F)cnn1 (single isomer, unassigned) [Example 14] | 45.1 |
| Cc1cc(N2C[C@H]3CC[C@@H](C2)[C@@H]3Nc2nc3n(n2)CCCOC3c2cc(F)cc(Cl)c2)cnn1 (single isomer, unassigned) [Example 16] | 62.6 |
| COc1cc(N2C[C@H]3CC[C@@H](C2)[C@@H]3Nc2nc3n(n2)CCCOC3c2cc(F)cc(Cl)c2)cnn1 (single isomer, unassigned) [Example 20] | 34.5 |
| Cc1cc(N2C[C@H]3CC[C@@H](C2)[C@@H]3Nc2nc3n(n2)CCCO[C@@H]3c2cc(F)cc(Cl)c2)ncn1 (single isomer, unassigned) [Example 33] | 10.9 |
| Cc1cc(N2C[C@H]3CC[C@@H](C2)[C@@H]3Nc2nc3n(n2)CCCOC3c2cc(F)cc(Cl)c2)ncn1 (single isomer, unassigned) [Example 34] | 19.6 |
| Cc1cc(N2C[C@H]3CC[C@@H](C2)[C@@H]3Nc2nc3n(n2)CCCO[C@@H]3c2ccc(F)c(F)c2F)ncn1 (single isomer, unassigned) [Example 39] | 43.9 |
| Cc1cc(N2C[C@H]3CC[C@@H](C2)[C@@H]3Nc2nc3n(n2)CCCOC3c2ccc(F)c(F)c2F)ncn1 (single isomer, unassigned) [Example 40] | 19.2 |
| COc1cc(N2C[C@H]3CC[C@@H](C2)[C@@H]3Nc2nc3n(n2)CCCO[C@@H]3c2ccc(F)cc2F)cnn1 [Example 3, (9R)-9-(2,4-difluorophenyl)-N-[(1R,5S)-3-(6-methoxypyridazin-4-yl)-3-azabicyclo[3.2.1]octan-8-yl]-5,6,7,9-tetrahydro-[1,2,4]triazolo[5,1-c][1,4]oxazepin-2-amine] | 87.4 |
| COc1cc(N2C[C@H]3CC[C@@H](C2)[C@@H]3Nc2nc3n(n2)CCCO[C@@H]3c2cc(F)cc(F)c2)cnn1 [Example 11, (9R)-9-(3,5-difluorophenyl)-N-[(1R,5S)-3-(6-methoxypyridazin-4-yl)-3-azabicyclo[3.2.1]octan-8-yl]-5,6,7,9-tetrahydro-[1,2,4]triazolo[5,1-c][1,4]oxazepin-2-amine] | 22.1 |
| Cc1cc(N2C[C@H]3CC[C@@H](C2)[C@@H]3Nc2nc3n(n2)CCO[C@@H]3c2ccc(F)c(F)c2F)ncn1 [Example 23, (8R)—N-[(1R,5S)-3-(6-methylpyrimidin-4-yl)-3-azabicyclo[3.2.1]octan-8-yl]-8-(2,3,4-trifluorophenyl)-6,8-dihydro-5H-[1,2,4]triazolo[5,1-c][1,4]oxazin-2-amine] | 59.7 |

Other lines, results leading:

| IC50 [nM] | Compound |
| --- | --- |
| 76.2 | COc1cc(N2C[C@H]3CC[C@@H](C2)[C@@H]3Nc2nc3n(n2)CCCOC3c2ccc(F)cc2F)cnn1 (single isomer, unassigned) [Example 4] |
| 47.7 | Cc1cc(N2C[C@H]3CC[C@@H](C2)[C@@H]3Nc2nc3n(n2)CCCO[C@@H]3c2cccc(F)c2F)ncn1 (single isomer, unassigned) [Example 5] |
| 62.3 | Cc1cc(N2C[C@H]3CC[C@@H](C2)[C@@H]3Nc2nc3n(n2)CCCOC3c2cccc(F)c2F)ncn1 (single isomer, unassigned) [Example 6] |
| 21.7 | Cc1cc(N2C[C@H]3CC[C@@H](C2)[C@@H]3Nc2nc3n(n2)CCCOC3c2cc(F)cc(F)c2)ncn1 (single isomer, unassigned) [Example 9] |
| 72.3 | COc1cc(N2C[C@H]3CC[C@@H](C2)[C@@H]3Nc2nc3n(n2)CCCOC3c2cc(F)cc(F)c2)cnn1 (single isomer, unassigned) [Example 12] |
| 21.8 | COc1cc(N2C[C@H]3CC[C@@H](C2)[C@@H]3Nc2nc3n(n2)CCCO[C@@H]3c2ccc(F)c(F)c2F)cnn1 (single isomer, unassigned) [Example 13] |
| 82.3 | Cc1cc(N2C[C@H]3CC[C@@H](C2)[C@@H]3Nc2nc3n(n2)CCCO[C@@H]3c2ccc(F)c(F)c2F)cnn1 (single isomer, unassigned) [Example 17] |
| 13.2 | COc1cc(N2C[C@H]3CC[C@@H](C2)[C@@H]3Nc2nc3n(n2)CCCO[C@@H]3c2cc(F)cc(Cl)c2)cnn1 (single isomer, unassigned) [Example 19] |
| 71.8 | COc1cc(N2C[C@H]3CC[C@@H](C2)[C@@H]3Nc2nc3n(n2)CCOC3c2cc(F)cc(Cl)c2)cnn1 (single isomer, unassigned) [Example 22] |
| 78.9 | Cc1cc(N2C[C@H]3CC[C@@H](C2)[C@@H]3Nc2nc3n(n2)CCOC3c2ccc(F)c(F)c2F)ncn1 (single isomer, unassigned) [Example 24] |
| 95.9 | COc1cc(N2C[C@H]3CC[C@@H](C2)[C@@H]3Nc2nc3n(n2)CCOC3c2ccc(F)c(F)c2F)cnn1 (single isomer, unassigned) [Example 28] |
| 52 | COc1cc(N2C[C@H]3CC[C@@H](C2)[C@@H]3Nc2nc3n(n2)CCO[C@@H]3c2ccc(F)c(F)c2F)ccn1 (single isomer, unassigned) [Example 31] |
| 6.58 | COc1cc(N2C[C@H]3CC[C@@H](C2)[C@@H]3Nc2nc3n(n2)CCCO[C@@H]3c2cc(F)cc(Cl)c2)ccn1 (single isomer, unassigned) [Example 35] |
| 12.9 | COc1cc(N2C[C@H]3CC[C@@H](C2)[C@@H]3Nc2nc3n(n2)CCCOC3c2cc(F)cc(Cl)c2)ccn1 (single isomer, unassigned) [Example 36] |
| 12.7 | COc1cc(N2C[C@H]3CC[C@@H](C2)[C@@H]3Nc2nc3n(n2)CCCOC3c2ccc(F)c(F)c2F)ccn1 (single isomer, unassigned) [Example 38] |
| 23.9 | Cc1cc(N2C[C@H]3CC[C@@H](C2)[C@@H]3Nc2nc3n(n2)CCCO[C@@H]3c2cc(F)cc(Cl)c2)cnn1 [Example 15, (9R)-9-(3-chloro-5-fluoro-phenyl)-N-[(1R,5S)-3-(6-methylpyridazin-4-yl)-3-azabicyclo[3.2.1]octan-8-yl]-5,6,7,9-tetrahydro-[1,2,4]triazolo[5,1-c][1,4]oxazepin-2-amine] |
| 16.6 | COc1cc(N2C[C@H]3CC[C@@H](C2)[C@@H]3Nc2nc3n(n2)CCO[C@@H]3c2cc(F)cc(Cl)c2)cnn1 [Example 21, (8R)-8-(3-chloro-5-fluoro-phenyl)-N-[(1R,5S)-3-(6-methoxypyridazin-4-yl)-3-azabicyclo[3.2.1]octan-8-yl]-6,8-dihydro-5H-[1,2,4]triazolo[5,1-c][1,4]oxazin-2-amine] |
| 20.8 | Cc1cc(N2C[C@H]3CC[C@@H](C2)[C@@H]3Nc2nc3n(n2)CCO[C@@H]3c2cc(F)cc(Cl)c2)ncn1 [Example 25, (8R)-8-(3-chloro-5-fluoro-phenyl)-N-[(1R,5S)-3-(6-methylpyrimidin-4-yl)-3-azabicyclo[3.2.1]octan-8-yl]-6,8-dihydro-5H-[1,2,4]triazolo[5,1-c][1,4]oxazin-2-amine] |
| 77.4 | COc1cc(N2C[C@H]3CC[C@@H](C2)[C@@H]3Nc2nc3n(n2)CCO[C@@H]3c2ccc(F)c(F)c2F)cnn1 [Example 27, (8R)—N-[(1R,5S)-3-(6-methoxypyridazin-4-yl)-3-azabicyclo[3.2.1]octan-8-yl]-8-(2,3,4-trifluorophenyl)-6,8-dihydro-5H-[1,2,41]triazolo[5,1-c][1,4]oxazin-2-amine] |
| 11.2 | COc1cc(N2C[C@H]3CC[C@@H](C2)[C@@H]3Nc2nc3n(n2)CCO[C@@H]3c2cc(F)cc(Cl)c2)ccn1 [Example 29, (8R)-8-(3-chloro-5-fluoro-phenyl)-N-[(1R,5S)-3-(2-methoxy-4-pyridyl)-3-azabicyclo[3.2.1]octan-8-yl]-6,8-dihydro-5H-[1,2,4]triazolo[5,1-c][1,4]oxazin-2-amine] |
| 15.7 | COc1cc(N2C[C@H]3CC[C@@H](C2)[C@@H]3Nc2nc3n(n2)CCCO[C@@H]3c2ccc(F)c(F)c2F)ccn1 [Example 37, (9R)—N-[(1R,5S)-3-(2-methoxy-4-pyridyl)-3-azabicyclo[3.2.1]octan-8-yl]-9-(2,3,4-trifluorophenyl)-5,6,7,9-tetrahydro-[1,2,4]triazolo[5,1-c][1,4]oxazepin-2-amine] |
